The test system of one assay is human CD34+CD38− HSC. The assay is described as follows: In vitro flow cytometric binding to HSC. The class given is cell-based. As to conditions: 10 μg/ml; for binding to human Cord Blood HSC: in decreasing avidity. As to the method: To determine whether CXCR4 i-bodies bind HSC, in vitro binding analysis to human CD34+CD38^− cells was assessed. Umbilical cord blood (CB) and human bone marrow (BM) were collected as previously described (Nilsson S K et al, 2005 15; 106(4):1232-9; Grassinger, 2009 2; 114(1):49-59). Enriched human BM CD34+ cells and purified CB CD34^+ cells were isolated as previously described (Grassinger, 2009). Human CB and BM CD34+ cells and huNSG BM were stained sequentially with CXCR4 i-bodies (10 μg/ml), anti-His-PE and an antibody cocktail containing CD34-FITC (BD Biosciences #348053) and CD38-BV421 (BD Horizon #562444), washed with PBS (0.5% BSA) and analysed by flow cytometry on a Cytopeia Influx (BD) as previously described (Grassinger, 2009). For analysis of human and murine BM and PB, up to 5×10^6 cells were analyzed at 10-20,000 cells/sec. Data were analyzed using FlowJo 10 software (FlowJo, LLC). For analysis of huNSG BM, huCD45-PECy7 (BD Biosciences #557748) and muCD45-BUV395 (BD Biosciences #564279) were also included in the antibody cocktail. HSC from human CB and BM were defined as CD34+CD38− and HSC from huNSG mice were defined as muCD45^−huCD45^+CD34^+CD38^−. CB and BM samples from 3 individual donors and BM from 3 individual huNSG mice were assessed.

Assay [1] relates to human CD34+ stem and progenitor cells. Put plainly: Mobilisation of human CD34+ cells in humanised NSG mice. It is filed as in vivo, humanized NODSIL2Rγ (NSG) mice. As to conditions: humanised NSG mouse model, compared to AMD3100. The procedure: To acquire evidence of mobilisation of human CD34^+ stem and progenitor cells using CXCR4 i-bodies, the above mobilisation experiment was conducted in humanized NODSIL2Rγ (NSG) mice. NSG mice are severely immunodeficient and lack mature T cells, B-cells and NK cells and have severely defective innate immunity, which allows engraftment of human cells without subsequent rejection. NSG mice were transplanted with freshly sorted CD34^+ cord blood cells and upon confirmation of positive human CD45/CD34 engraftment (˜4-5 weeks) were used as a mouse model for human stem cell mobilisation.
Mobilised peripheral blood was harvested and assessed for CD34^+ (human stem and progenitors).

For assay [2], the system named is Ramos tumor cells. Put plainly: MTT cell proliferation assay. It is filed as cell-based, human. The conditions noted are these: 24 to 72 hrs, AM3-114 at 10 μM. As to the method: The ability of the CXCR4 molecules or polypeptides disclosed herein (i-bodies) to inhibit proliferation of Ramos tumor cells, a human Burkitt's lymphoma cell line expressing CXCR4 mentioned above, in vitro was examined in a MTT cell proliferation assay as described in (Lapteva (2005) Cancer Gene Therapy 12, 84-89). Cells were grown in a 96-well tissue culture plate and treated with a vehicle or the anti-CXCR4 body. The cells were then incubated with the MTT solution for approximately 4 hours. After this incubation period, a water-insoluble formazan dye is formed. After solubilization, the formazan dye is quantitated using a scanning multi-well spectrophotometer (ELISA reader).

For assay [3], the system named is Human platelet rich plasma. The assay is described as follows: SDF-1α induced platelet aggregation. The class given is cell-based. As to conditions: 10 or 20 ug/mL, 100 nM SDF-1 alpha. The procedure: Experiments were carried out to examine whether the i-bodies could block platelet aggregation induced by SDF-1α. […] In the presence of negative control i-body 21H5 (or the isotype control for 12G5: mouse IgG2a). SDF-1 induced a robust and reproducible aggregation (the descending black curves, which indicate an increase in light transmission), which matches with what has been previously published.

The subject of assay [4] is Ramos tumor cells. The assay is described as follows: Apoptosis assay (annexin V / propidium iodide flow cytometry). It is filed as cell-based, human. The conditions noted are these: annexin V and propidium iodide double positive, 24 or 72 hours. Background: A flow cytometer gives signals particle by particle.
The nature of assay [5]: Murine air pouch model with SDF-1. The class given is in vivo, BALB/c mice. As to conditions: intraperitoneal, 30 minutes before SDF-1 6 μg. As to the method: The ability of i-bodies to block inflammation was evaluated in an in vivo murine air pouch model. The subcutaneous (s.c.) air pouch is an in vivo model used to study acute and chronic inflammation (Durate et al, Models of Inflammation: Carrageenan Air Pouch, Current Protocols in Pharmacology 5.6.1-5.6.8, March 2012). Injection of irritants into an air pouch in rats or mice induces an inflammatory response that can be quantified by the volume of exudate produced, the infiltration of cells, and the release of inflammatory mediators. An air pouch, is generated by injection of sterile air under the skin of the back of the mouse. […] Air pouch lavage fluid is then analyzed for cell trafficking and cytokine release.
The air pouch assay was performed on 7-week-old BALB/c mice. On days 1 and 3, 0.2 ml/g initial body weight (IBW) of sterile air was injected under the back skin to create the pouch. […] Thirty minutes later, SDF-1 (6 μg) was injected into the pouch. Four hours later, the mice were killed in a CO2 chamber and the air pouch was washed. Cells were collected, counted, and characterized by flow cytometry.

Assay [6] in a line: Bleomycin mouse model of pulmonary fibrosis. It is filed as in vivo. An outline of the steps:
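Mice received bleomycin 2 U/mouse, with i-body dosed just before; at day 4, BAL SDF-1, lung fibrocytes (CD45+ CXCR4+ Collagen1+ by flow cytometry of collagenase/dispase suspensions), Sircol collagen staining and Col-1, Col-3, SDF-1 RNA were assessed. A separate 21-day bleomycin study tested PEGylated i-body.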

“Also recorded” adds a separate entry of the source.

Consider “AM3-114: affinity matured CXCR4 i-body, SEQ ID NO: 40”, for which, in the assay on human CD34+CD38− HSC, the “binding to human Bone Marrow HSC and Bone Marrow from huNSG mice” value is “effectively bound”; the “binding to human Cord Blood HSC” value was “effectively bound”. Moreover, the “mobilisation of human CD34+ stem cells” value in assay [1] is given as “do not mobilise stem cells”. In the assay on Ramos tumor cells [2], the “growth of RAMOS cells” value is “substantially inhibit the growth”. Further, the “blocking of SDF-1α induced platelet aggregation” value in assay [3] is on record as “most effective; also recorded: most efficient”. Besides, in the assay on Ramos tumor cells [4], the “induction of apoptosis in Ramos cells” value is “induced apoptosis”. Besides, the “cell migration / leukocyte infiltration into the air pouch” value in assay [5] was “inhibiting leukocyte infiltration; also recorded: inhibited cell migration”. For the same molecule, the “collagen content of the lung (Sircol)” value in assay [6] (30 mg/kg) was “reduced the collagen content”. The “recruitment of fibrocytes into the lungs” value in assay [6] (30 mg/kg, day 4, CD45+ CXCR4+ Col 1+ cells) was “dramatically attenuate”.

B1: AM3-523: affinity matured CXCR4 i-body, SEQ ID NO: 56 (protein)
chain: LQVDIVPSQGEISVGESKFFLCQVAGSGSHMRISWFSPNGEKLTPNQQRISVVWNDDSSSTLTIYNANIDDAGIYKCVVWVGGYRHRALVLGEATVNVKIFQ
modifications: protein sequence encoding AM3-523
On to B1, for which the “binding to human Cord Blood HSC” value in the assay with human CD34+CD38− HSC was “effectively bound”. In addition, the “mobilisation of human CD34+ stem cells” value in assay [1] is on record as “do not mobilise stem cells”. Further, in the assay on Ramos tumor cells [2], the “growth of RAMOS cells” value is “no observable effect”. Also, in assay [3], the “blocking of SDF-1α induced platelet aggregation” value is “blocked aggregation to the same extent as the MAb12G5”. The “induction of apoptosis in Ramos cells” value in the assay on Ramos tumor cells [4] is listed as “induced apoptosis”. Further, in assay [5], the “cell migration / leukocyte infiltration into the air pouch” value is “inhibiting leukocyte infiltration; also recorded: inhibited cell migration”. Besides, the “recruitment of fibrocytes into the lungs” value is given as “block recruitment of fibrocytes” in assay [6] (1 mg/Kg, day 4) and “significantly attenuate” in assay [6] (day 4, dose not given). The “collagen content of the lung (Sircol)” value in assay [6] (30 mg/kg) is recorded as “reduced the collagen content”.

The values are drawn from patent US11142588B2, “Polypeptides which bind C-X-C chemokine receptor type 4 (CXCR4) and methods of treating or reducing the risk of fibrosis and cancer” (AdAlta Limited, priority 2015, dated 2021).
